According to PubChem BioAssay AID1963825 (Molecular Pharmacology Branch, DTP, NCI, 2024):

Assay: Anticancer human tumor 997537-175-T-J1-PDC patient-derived colon adenocarcinoma cell line growth inhibition [POLQ]
Details: 997537-175-T-J1-PDC complex spheroid viability, combination with POLQ inhibitors; for IC50: curve of first compound; for viability, T/C: stronger effect = lower value; active = viability on the fitted dose curve at most 10% of control; inactive = the rest
Protocol: Multicellular complex tumor spheroid response to Polymerase (POL) inhibitors (novobiocin, ART-558, RP6685) in combination with a variety of drugs and investigational agents in selected tumor cell lines
The POL inhibitors (novobiocin, ART-558, and RP6685) were evaluated both individually and in combination with standard of care and investigational anticancer small molecules within a complex spheroid model of solid tumors. . Complex spheroids include a stromal component modeled by human endothelial cells (HUVEC) and fibroblasts modeled by human mesenchymal stem cells (MSCs). The concentration ranges selected for each drug and investigational agent were based upon clinically achievable concentrations if the clinical Cmax of the agent was known.
Compounds. The drugs and investigational agents: novobiocin (NSC847541), ART-558 (NSC835418), RP-6685 (NSC848927), peposertib (NSC802822), ceralasertib (NSC780249), elimusertib (NSC800525), camonsertib (NSC841442), AZD-1390 (NSC803789), olaparib (NSC753686), talazoparib (NSC767125), rucaparib (NSC756644), sotorasib (NSC818433), MRTX-1133 (NSC836407), SN-38 (NSC673596), topotecan (NSC609699), epotoside (NSC141540), doxorubicin (NSC123127), gemcitabine (NSC613327), 5-fluorouracil (NSC19893), paclitaxel (NSC125973), vemurafenib (NSC761431), MSA-2 (NSC828583), SN-011 (NSC837082), adavosertib (NSC754352), prexasertib (NSC758257), carboplatin (NSC241240) and oxaliplatin (NSC266046), were obtained from the National Cancer Institute (NCI) Developmental Therapeutics Program Chemical Repository (21). The FDA-approved anticancer drug set is available from the Developmental Therapeutics Program at https://dtp.cancer.gov/organization/dscb/obtaining/. […] The stock solutions were prepared in dimethyl sulfoxide (DMSO, Sigma-Aldrich, St. Louis, MO, cat. D2650), except for the platinum compounds which were prepared in saline (Quality Biological, Gaithersburg, MD, cat. 114-055-101), at 800-fold the tested concentration and stored at -70 degrees C prior to their use. All drugs and investigational agents were tested over a range starting from a high concentration at or near the clinical Cmax and decreasing in half-log increments. If the clinical Cmax for an agent had not been determined, the highest concentration tested was 10 microM, except for SN-38, which was tested at a high concentration of 1 microM.
Cell Culture. All cells were maintained in an incubator at 37 degrees C and 5% CO2 with 95% humidity. The PDC lines were cultured according to standard operating procedures established by the NCI PDMR (https://pdmr.cancer.gov). Table 3 of the manuscript, lists the cell lines along with the number of the three cell types plated to form the mct-spheroids and media for tumor cell growth. After thawing, all PDC lines, except 997537-175-T-J1-PDC and 415267-285-R-J2-PDC, were cultured in Matrigel-coated flasks prepared with a working solution of 1X Ham's F-12 nutrient mix, without supplementation (Thermo Fisher Scientific, cat. 11765054), 100 U/mL penicillin-streptomycin (Thermo Fisher Scientific, cat. 15140122), and 2.5% Matrigel (Corning Inc., Corning, NY, cat. 354248) for the first three passages. The two PDC lines 997537-175-T-J1-PDC and 415267-285-R-J2-PDC were cultured on uncoated flasks. The 857933-349-R-J2-PDC line was cultured in 6C/Colon 1B media containing advanced DMEM/F-12 (Thermo Fisher Scientific, cat. 12634028), 10 mM HEPES (Thermo Fisher Scientific, cat. 15630080), 1X GlutaMAX supplement (Thermo Fisher Scientific, cat. 35050061), 0.1 mg/mL primocin (InvivoGen, San Diego, CA, cat. ant-pm-2), 10% defined fetal bovine serum, heat inactivated (HyClone Laboratories Inc., Logan, UT, cat. SH30070.03HI), 50% L-WRN conditioned media (ATCC, cat. CRL-3276), 1.25 mM N-Acetyl-L-cysteine (Sigma-Aldrich, cat. A9165), 10 mM nicotinamide (Sigma-Aldrich, cat. N0636), 1X B-27 supplement (Thermo Fisher Scientific, cat. 17504044), 1X N-2 supplement (Thermo Fisher Scientific, cat. […]
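Also: luminescence signal used as a surrogate for viable cells; spheroids exposed to drugs for seven days before readout.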

CCc1cc2c(N3CCc4c(cc(Cn5ccnc5)cc4-c4cn(C)nc4C(F)(F)F)C3=O)ccnc2c(OC)n1 + COC1C(OC(N)=O)C(O)C(Oc2ccc3c(O)c(NC(=O)c4ccc(O)c(CC=C(C)C)c4)c(=O)oc3c2C)OC1(C)C
> 10 µM: IC50 (second compound 0.0316 µM) | IC50 (second compound 0.1 µM) | IC50 (second compound 0.316 µM) | IC50 (second compound 1 µM) | IC50 (second compound 3.16 µM) | IC50 (second compound 10 µM)
inactive: viability, T/C (second compound 0.0316 µM, first compound 0.0316 µM) 101% | viability, T/C (second compound 0.0316 µM, first compound 0.1 µM) 107% | viability, T/C (second compound 0.0316 µM, first compound 0.316 µM) 83% | viability, T/C (second compound 0.0316 µM, first compound 1 µM) 86% | viability, T/C (second compound 0.0316 µM, first compound 3.16 µM) 93.8% | viability, T/C (second compound 0.0316 µM, first compound 10 µM) 57% | viability, T/C (second compound 0.1 µM, first compound 0.0316 µM) 108% | viability, T/C (second compound 0.1 µM, first compound 0.1 µM) 106% | viability, T/C (second compound 0.1 µM, first compound 0.316 µM) 94.6% | viability, T/C (second compound 0.1 µM, first compound 1 µM) 98.5% | viability, T/C (second compound 0.1 µM, first compound 3.16 µM) 98.4% | viability, T/C (second compound 0.1 µM, first compound 10 µM) 52.3% | viability, T/C (second compound 0.316 µM, first compound 0.0316 µM) 97% | viability, T/C (second compound 0.316 µM, first compound 0.1 µM) 104% | viability, T/C (second compound 0.316 µM, first compound 0.316 µM) 103% | viability, T/C (second compound 0.316 µM, first compound 1 µM) 95.7% | viability, T/C (second compound 0.316 µM, first compound 3.16 µM) 61.9% | viability, T/C (second compound 0.316 µM, first compound 10 µM) 52.1% | viability, T/C (second compound 1 µM, first compound 0.0316 µM) 113% | viability, T/C (second compound 1 µM, first compound 0.1 µM) 83.3% | viability, T/C (second compound 1 µM, first compound 0.316 µM) 71.3% | viability, T/C (second compound 1 µM, first compound 1 µM) 93.8% | viability, T/C (second compound 1 µM, first compound 3.16 µM) 69% | viability, T/C (second compound 1 µM, first compound 10 µM) 52.3% | viability, T/C (second compound 3.16 µM, first compound 0.0316 µM) 106% | viability, T/C (second compound 3.16 µM, first compound 0.1 µM) 99% | viability, T/C (second compound 3.16 µM, first compound 0.316 µM) 91.9% | viability, T/C (second compound 3.16 µM, first compound 1 µM) 76.5% | viability, T/C (second compound 3.16 µM, first compound 3.16 µM) 70% | viability, T/C (second compound 3.16 µM, first compound 10 µM) 64.8% | viability, T/C (second compound 10 µM, first compound 0.0316 µM) 110% | viability, T/C (second compound 10 µM, first compound 0.1 µM) 89.5% | viability, T/C (second compound 10 µM, first compound 0.316 µM) 93.2% | viability, T/C (second compound 10 µM, first compound 1 µM) 92.1% | viability, T/C (second compound 10 µM, first compound 3.16 µM) 55.6% | viability, T/C (second compound 10 µM, first compound 10 µM) 58.6%
